# The source made the active and inactive calls. The rule behind the calls is not given here.
# System: CCRIS mutagenicity, Ames/micronucleus/aberration tests
# Test: CCRIS mutagenicity studies
# [1] = Test System: AMES SALMONELLA TYPHIMURIUM, Strain/Indicator: TA98, Metabolic Activation: NONE, Method: PREINCUBATION
# [2] = Test System: AMES SALMONELLA TYPHIMURIUM, Strain/Indicator: TA100, Metabolic Activation: NONE, Method: PREINCUBATION
# [3] = Test System: AMES SALMONELLA TYPHIMURIUM, Strain/Indicator: TA100, Metabolic Activation: NONE, Method: STANDARD PLATE
# [4] = Test System: AMES SALMONELLA TYPHIMURIUM, Strain/Indicator: TA98, Metabolic Activation: NONE, Method: STANDARD PLATE
# [5] = Test System: AMES SALMONELLA TYPHIMURIUM, Strain/Indicator: TA97, Metabolic Activation: NONE, Method: STANDARD PLATE
# [6] = Test System: AMES SALMONELLA TYPHIMURIUM, Strain/Indicator: TA102, Metabolic Activation: NONE, Method: STANDARD PLATE
smiles,measurement,setting,value
Nc1cccc([N+](=O)[O-])c1N,mutagenic call,"Test System: AMES SALMONELLA TYPHIMURIUM, Strain/Indicator: TA98(NR), Metabolic Activation: NONE, Method: PREINCUBATION",active; positive
same,mutagenic call,"Test System: AMES SALMONELLA TYPHIMURIUM, Strain/Indicator: TA98(NR), Metabolic Activation: RAT, LIVER, S-9, AROCLOR 1254, Method: PREINCUBATION",active; positive
same,mutagenic call,[1],active; positive
same,mutagenic call,"Test System: AMES SALMONELLA TYPHIMURIUM, Strain/Indicator: TA100(NR), Metabolic Activation: NONE, Method: PREINCUBATION",active; positive
same,mutagenic call,"Test System: AMES SALMONELLA TYPHIMURIUM, Strain/Indicator: TA100(NR), Metabolic Activation: RAT, LIVER, S-9, AROCLOR 1254, Method: PREINCUBATION",active; positive
same,mutagenic call,[2],active; positive
same,mutagenic call,[3],active; positive
same,mutagenic call,"Test System: AMES SALMONELLA TYPHIMURIUM, Strain/Indicator: TA104, Metabolic Activation: NONE, Method: STANDARD PLATE",active; positive
same,mutagenic call,"Test System: AMES SALMONELLA TYPHIMURIUM, Strain/Indicator: TA4001, Metabolic Activation: NONE, Method: STANDARD PLATE",inactive; negative
same,mutagenic call,"Test System: AMES SALMONELLA TYPHIMURIUM, Strain/Indicator: TA4006, Metabolic Activation: NONE, Method: STANDARD PLATE",active; positive
same,mutagenic call,"Test System: AMES SALMONELLA TYPHIMURIUM, Strain/Indicator: TA7001, Metabolic Activation: NONE, Method: STANDARD PLATE",active; positive
same,mutagenic call,"Test System: AMES SALMONELLA TYPHIMURIUM, Strain/Indicator: TA7001, Metabolic Activation: RAT LIVER S-9, AROCLOR 1254, Method: STANDARD PLATE",inactive; negative
same,mutagenic call,"Test System: AMES SALMONELLA TYPHIMURIUM, Strain/Indicator: TA7002, Metabolic Activation: NONE, Method: STANDARD PLATE",active; positive
same,mutagenic call,"Test System: AMES SALMONELLA TYPHIMURIUM, Strain/Indicator: TA7003, Metabolic Activation: NONE, Method: STANDARD PLATE",active; positive
same,mutagenic call,"Test System: AMES SALMONELLA TYPHIMURIUM, Strain/Indicator: TA7003, Metabolic Activation: RAT LIVER S-9, AROCLOR 1254, Method: STANDARD PLATE",inactive; negative
same,mutagenic call,"Test System: AMES SALMONELLA TYPHIMURIUM, Strain/Indicator: TA7004, Metabolic Activation: NONE, Method: STANDARD PLATE",active; positive
same,mutagenic call,"Test System: AMES SALMONELLA TYPHIMURIUM, Strain/Indicator: TA7004, Metabolic Activation: RAT LIVER S-9, AROCLOR 1254, Method: STANDARD PLATE",inactive; negative
same,mutagenic call,"Test System: AMES SALMONELLA TYPHIMURIUM, Strain/Indicator: TA7005, Metabolic Activation: NONE, Method: STANDARD PLATE",active; positive
same,mutagenic call,"Test System: AMES SALMONELLA TYPHIMURIUM, Strain/Indicator: TA7006, Metabolic Activation: NONE, Method: STANDARD PLATE",inactive; negative
same,mutagenic call,"Test System: CHINESE HAMSTER OVARY, Strain/Indicator: CHO-K1-BH4 (HGPRT), Metabolic Activation: NONE, Method: SUSPENSION/PLATE",active; positive
ClCc1cc2c3c(cccc3c1)-c1ccccc1-2,mutagenic call,[4],active; positive
same,mutagenic call,[3],active; positive
CCC(CCC(C)O)COC(=O)CCCCC(=O)O (stereo unspecified),mutagenic call,[5],inactive; negative
same,mutagenic call,"Test System: AMES SALMONELLA TYPHIMURIUM, Strain/Indicator: TA97, Metabolic Activation: RAT, LIVER, S-9, AROCLOR 1254, Method: STANDARD PLATE",inactive; negative
same,mutagenic call,"Test System: AMES SALMONELLA TYPHIMURIUM, Strain/Indicator: TA97, Metabolic Activation: RAT, LIVER, S-9, DI(2-ETHYLHEXYL)PHTHALATE, Method: STANDARD PLATE",inactive; negative
same,mutagenic call,[4],inactive; negative
same,mutagenic call,"Test System: AMES SALMONELLA TYPHIMURIUM, Strain/Indicator: TA98, Metabolic Activation: RAT, LIVER, S-9, AROCLOR 1254, Method: STANDARD PLATE",inactive; negative
same,mutagenic call,"Test System: AMES SALMONELLA TYPHIMURIUM, Strain/Indicator: TA98, Metabolic Activation: RAT, LIVER, S-9, DI(2-ETHYLHEXYL)PHTHALATE, Method: STANDARD PLATE",inactive; negative
same,mutagenic call,[3],inactive; negative
same,mutagenic call,"Test System: AMES SALMONELLA TYPHIMURIUM, Strain/Indicator: TA100, Metabolic Activation: RAT, LIVER, S-9, AROCLOR 1254, Method: STANDARD PLATE",inactive; negative
same,mutagenic call,"Test System: AMES SALMONELLA TYPHIMURIUM, Strain/Indicator: TA100, Metabolic Activation: RAT, LIVER, S-9, DI(2-ETHYLHEXYL)PHTHALATE, Method: STANDARD PLATE",inactive; negative
same,mutagenic call,[6],inactive; negative
same,mutagenic call,"Test System: AMES SALMONELLA TYPHIMURIUM, Strain/Indicator: TA102, Metabolic Activation: RAT, LIVER, S-9, AROCLOR 1254, Method: STANDARD PLATE",inactive; negative
same,mutagenic call,"Test System: AMES SALMONELLA TYPHIMURIUM, Strain/Indicator: TA102, Metabolic Activation: RAT, LIVER, S-9, DI(2-ETHYLHEXYL)PHTHALATE, Method: STANDARD PLATE",inactive; negative
COC(=O)c1ccc([N+](=O)[O-])c2c(NCCCN(C)C)c3ccccc3nc12,mutagenic call,[4],active; positive
same,mutagenic call,[3],active; positive
Cn1c2ccccc2c2nn[n+]([O-])c(C(=O)OCCCl)c21,mutagenic call,[5],active; positive
same,mutagenic call,"Test System: AMES SALMONELLA TYPHIMURIUM, Strain/Indicator: TA97, Metabolic Activation: RAT, LIVER, S-9, AROCLOR 1254 (4%, 10%), Method: STANDARD PLATE",active; positive
same,mutagenic call,[4],active; positive
same,mutagenic call,"Test System: AMES SALMONELLA TYPHIMURIUM, Strain/Indicator: TA98, Metabolic Activation: RAT, LIVER, S-9, AROCLOR 1254 (4%, 10%), Method: STANDARD PLATE",active; positive
same,mutagenic call,[3],inactive; negative
same,mutagenic call,"Test System: AMES SALMONELLA TYPHIMURIUM, Strain/Indicator: TA100, Metabolic Activation: RAT, LIVER, S-9, AROCLOR 1254 (4%, 10%), Method: STANDARD PLATE",inactive; negative
same,mutagenic call,[6],inactive; negative
same,mutagenic call,"Test System: AMES SALMONELLA TYPHIMURIUM, Strain/Indicator: TA102, Metabolic Activation: RAT, LIVER, S-9, AROCLOR 1254 (4%, 10%), Method: STANDARD PLATE",inactive; negative
[Cl][Pt-2]([Cl])([Cl])([Cl])([Cl])[Cl],mutagenic call,"Test System: AMES SALMONELLA TYPHIMURIUM, Strain/Indicator: TA97A, Metabolic Activation: RAT, LIVER, S-9, PHENOBARBITAL AND 5,6-BENZOFLAVONE, Method: STANDARD PLATE",active; positive
same,mutagenic call,"Test System: AMES SALMONELLA TYPHIMURIUM, Strain/Indicator: TA97A, Metabolic Activation: RAT, LIVER, S-9, PHENOBARBITAL AND BETA-NAPHTHOFLAVONE, Method: STANDARD PLATE",active; positive
same,mutagenic call,[1],inactive; negative
same,mutagenic call,[4],active; positive
same,mutagenic call,"Test System: AMES SALMONELLA TYPHIMURIUM, Strain/Indicator: TA98, Metabolic Activation: RAT, LIVER, S-9, AROCLOR 1254, Method: PREINCUBATION",active; positive
same,mutagenic call,"Test System: AMES SALMONELLA TYPHIMURIUM, Strain/Indicator: TA98, Metabolic Activation: RAT, LIVER, S-9, PHENOBARBITAL AND 5,6-BENZOFLAVONE, Method: STANDARD PLATE",active; positive
same,mutagenic call,"Test System: AMES SALMONELLA TYPHIMURIUM, Strain/Indicator: TA98, Metabolic Activation: RAT, LIVER, S-9, PHENOBARBITAL AND BETA-NAPHTHOFLAVONE, Method: STANDARD PLATE",active; positive
same,mutagenic call,[2],inactive; negative
same,mutagenic call,[3],active; positive
same,mutagenic call,"Test System: AMES SALMONELLA TYPHIMURIUM, Strain/Indicator: TA100, Metabolic Activation: RAT, LIVER, S-9, AROCLOR 1254, Method: PREINCUBATION",inactive; negative
same,mutagenic call,"Test System: AMES SALMONELLA TYPHIMURIUM, Strain/Indicator: TA100, Metabolic Activation: RAT, LIVER, S-9, PHENOBARBITAL AND 5,6-BENZOFLAVONE, Method: STANDARD PLATE",active; positive
same,mutagenic call,"Test System: AMES SALMONELLA TYPHIMURIUM, Strain/Indicator: TA100, Metabolic Activation: RAT, LIVER, S-9, PHENOBARBITAL AND BETA-NAPHTHOFLAVONE, Method: STANDARD PLATE",active; positive
same,mutagenic call,[6],active; positive
same,mutagenic call,"Test System: AMES SALMONELLA TYPHIMURIUM, Strain/Indicator: TA102, Metabolic Activation: RAT, LIVER, S-9, PHENOBARBITAL AND 5,6-BENZOFLAVONE, Method: STANDARD PLATE",active; positive
same,mutagenic call,"Test System: AMES SALMONELLA TYPHIMURIUM, Strain/Indicator: TA102, Metabolic Activation: RAT, LIVER, S-9, PHENOBARBITAL AND BETA-NAPHTHOFLAVONE, Method: STANDARD PLATE",active; positive
Nc1ccc(CC(=O)O)cc1,mutagenic call,[4],inactive; negative
same,mutagenic call,"Test System: AMES SALMONELLA TYPHIMURIUM, Strain/Indicator: TA98, Metabolic Activation: RAT, LIVER, S-9, Method: STANDARD PLATE",active; positive

# Reference: PubChem BioAssay AID1259407 (Chemical Carcinogenesis Research Information System (CCRIS), 2018)
